target: T1, hFXR (Homo sapiens, UniProt Q96RI1); assay: In Vitro FXR Assay (TK): TK-ECRE-luc reporter in transfected CV-1 cells; type: cell-based; conditions: 18 hrs incubation, luminescence
T1 construct: expressed in transfected cells; host or cells: CV-1 cells
T1 sequence (Q96RI1 1-486): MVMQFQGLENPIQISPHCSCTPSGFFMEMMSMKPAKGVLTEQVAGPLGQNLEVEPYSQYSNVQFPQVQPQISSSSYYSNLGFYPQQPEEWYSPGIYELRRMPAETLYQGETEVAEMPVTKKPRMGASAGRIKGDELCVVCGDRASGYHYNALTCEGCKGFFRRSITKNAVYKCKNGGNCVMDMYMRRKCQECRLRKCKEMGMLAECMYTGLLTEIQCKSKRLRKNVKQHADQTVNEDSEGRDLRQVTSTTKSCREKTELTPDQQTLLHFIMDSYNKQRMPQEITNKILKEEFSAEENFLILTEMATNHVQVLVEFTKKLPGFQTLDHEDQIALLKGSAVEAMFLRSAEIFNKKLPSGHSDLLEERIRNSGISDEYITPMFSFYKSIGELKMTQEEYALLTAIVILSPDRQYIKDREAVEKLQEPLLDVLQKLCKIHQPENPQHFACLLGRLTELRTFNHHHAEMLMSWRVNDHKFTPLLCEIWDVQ
T1 sequence (P19793 1-462 partner): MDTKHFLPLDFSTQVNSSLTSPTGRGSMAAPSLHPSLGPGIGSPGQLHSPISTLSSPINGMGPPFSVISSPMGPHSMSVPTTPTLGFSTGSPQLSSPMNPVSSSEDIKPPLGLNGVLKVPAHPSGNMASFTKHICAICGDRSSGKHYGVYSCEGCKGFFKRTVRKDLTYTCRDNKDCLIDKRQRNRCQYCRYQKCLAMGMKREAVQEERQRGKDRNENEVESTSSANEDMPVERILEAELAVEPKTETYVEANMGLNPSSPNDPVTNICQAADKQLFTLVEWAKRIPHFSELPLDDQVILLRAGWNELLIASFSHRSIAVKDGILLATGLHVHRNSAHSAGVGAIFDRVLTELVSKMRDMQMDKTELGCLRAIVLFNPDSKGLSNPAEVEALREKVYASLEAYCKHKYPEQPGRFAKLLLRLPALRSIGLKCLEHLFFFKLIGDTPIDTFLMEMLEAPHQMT
In short: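 CV-1 cells in DMEM with 10% charcoal-stripped FBS were transiently co-transfected with hFXR, hRXR, TK-ECRE-luc reporter and pCMX-YFP plasmids over 18 h at 37 °C. Compounds serially diluted in DMSO were added for 18 h; cells were then lysed and luciferase luminescence measured.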

EC50, ≤ 0.05 µM:
COc1ccc(C23CCC(CN(c4cc(-c5cnn(C6CCC6)c5)ccn4)C(=O)[C@H]4CC[C@H](OC(=O)N5CC(O)C5)CC4)(CC2)CC3)cc1C [Compound 23.08, 4-((4-(1-Cyclobutyl-1H-pyrazol-4-yl)pyridin-2-yl)((4-(4-methoxy-3-methylphenyl)bicyclo[2.2.2]octan-1-yl)methyl)carbamoyl)(trans-cyclohexyl) 3-hydroxyazetidine-1-carboxylate]
CCCC1CN(C(=O)O[C@H]2CC[C@H](C(=O)N(CC34CCC(c5ccc(OC)c(C)c5)(CC3)CC4)c3cc(-c4cnn(C(C)C)c4)ccn3)CC2)C1 [Compound 4.55, 4-((4-(1-Isopropyl-1H-pyrazol-4-yl)pyridin-2-yl) ((4-(4-methoxy-3-methylphenyl)bicyclo [2.2.2]octan-1-yl)methyl)carbamoyl)cyclohexyl trans-3-propylazetidine-1-carboxylate]
CNC(=O)O[C@H]1CC[C@H](C(=O)N(CC23CCC(c4ccc(OC)c(C)c4)(CC2)CC3)c2cc(-c3cnn(C(C)C)c3)ccn2)CC1 [Compound 4.03, 4-((4-(1-Isopropyl-1H-pyrazol-4-yl)pyridin-2-yl)((4-(4-methoxy-3-methylphenyl)bicyclo [2.2.2]octan-1-yl)methyl)carbamoyl)cyclohexyl trans-methylcarbamate]
COc1ccc(C23CCC(CN(c4ccc(F)c(-c5cnn(C(C)C)c5)c4F)C(=O)[C@H]4CC[C@H](OC(=O)N5CC(O)C5)CC4)(CC2)CC3)cc1C [Compound 25.15, 4-((2,4-Difluoro-3-(1-isopropyl-1H-pyrazol-4-yl)phenyl)((4-(4-methoxy-3-methylphenyl)bicyclo[2.2.2]octan-1-yl)methyl)carbamoyl)cyclohexyl trans-3-hydroxyazetidine-1-carboxylate]
COc1ccc(C23CCC(CN(c4cc(-n5cnc(C6CC6)n5)ccn4)C(=O)[C@H]4CC[C@H](OC(=O)N5CC(O)C5)CC4)(CC2)CC3)cc1C [Compound 4.17, 4-((4-(3-Cyclopropyl-1H-t1,2,4-riazol-1-yl)pyridin-2-yl)((4-(4-methoxy-3-methylphenyl)bicyclo [2.2.2]octan-1-yl)methyl)carbamoyl)cyclohexyl 3-hydroxyazetidine-trans-1-carboxylate]
COc1ccc([C@H]2CC[C@H](CN(c3cc(-c4cnc(C5CC5)s4)ccn3)C(=O)[C@H]3CC[C@H](OC(=O)NC(C)C)CC3)CC2)cc1C [Compound 2.45, trans-4-((4-(2-Cyclopropylthiazol-5-yl)pyridin-2-yl)(((trans)-4-(4-methoxy-3-methylphenyl)cyclohexyl)methyl)carbamoyl)cyclohexyl isopropylcarbamate]
COc1ccc(C23CCC(CN(c4cc(-c5cnn(C(C)C)c5)ccn4)C(=O)[C@H]4CC[C@H](OC(=O)N5CC(O)C5)CC4)(CC2)CC3)cc1F [Compound 26.08, 4-(((4-(3-Fluoro-4-methoxyphenyl)bicyclo[2.2.2]octan-1-yl)methyl)(4-(1-isopropyl-1H-pyrazol-4-yl)pyridin-2-yl)carbamoyl)cyclohexyl trans-3-hydroxyazetidine-1-carboxylate]
COc1ccc(C23CCC(CN(c4cc(-c5cnc(C(C)C)o5)ccn4)C(=O)[C@H]4CC[C@H](OC(=O)N5CC(O)C5)CC4)(CC2)CC3)cc1C [Compound 4.25, 4-((4-(2-Isopropyloxazol-5-yl)pyridin-2-yl)((4-(4-methoxy-3-methylphenyl)bicyclo[2.2.2]octan-1-yl)methyl)carbamoyl) cyclohexyl 3-hydroxyazetidine-trans-1-carboxylate]
